We go through 7 compounds from patent US20230234967A1, “Fused Azole Heterocycles as AHR Antagonists” (Senda Biosciences, Inc., priority 2021, published 2023).

Converted amounts (≈) assume the structure as drawn. Read-outs that look alike come from different tables or passages of the source.

The target of one data set is T1, AHR (Homo sapiens, UniProt P35869).
T1 construct: other cell line with a DRE-luciferase reporter stably transfected; endogenous in cells; host or cells: Human HepG2 liver carcinoma AhR-Lucia reporter cells
T1 sequence (P35869 11-848): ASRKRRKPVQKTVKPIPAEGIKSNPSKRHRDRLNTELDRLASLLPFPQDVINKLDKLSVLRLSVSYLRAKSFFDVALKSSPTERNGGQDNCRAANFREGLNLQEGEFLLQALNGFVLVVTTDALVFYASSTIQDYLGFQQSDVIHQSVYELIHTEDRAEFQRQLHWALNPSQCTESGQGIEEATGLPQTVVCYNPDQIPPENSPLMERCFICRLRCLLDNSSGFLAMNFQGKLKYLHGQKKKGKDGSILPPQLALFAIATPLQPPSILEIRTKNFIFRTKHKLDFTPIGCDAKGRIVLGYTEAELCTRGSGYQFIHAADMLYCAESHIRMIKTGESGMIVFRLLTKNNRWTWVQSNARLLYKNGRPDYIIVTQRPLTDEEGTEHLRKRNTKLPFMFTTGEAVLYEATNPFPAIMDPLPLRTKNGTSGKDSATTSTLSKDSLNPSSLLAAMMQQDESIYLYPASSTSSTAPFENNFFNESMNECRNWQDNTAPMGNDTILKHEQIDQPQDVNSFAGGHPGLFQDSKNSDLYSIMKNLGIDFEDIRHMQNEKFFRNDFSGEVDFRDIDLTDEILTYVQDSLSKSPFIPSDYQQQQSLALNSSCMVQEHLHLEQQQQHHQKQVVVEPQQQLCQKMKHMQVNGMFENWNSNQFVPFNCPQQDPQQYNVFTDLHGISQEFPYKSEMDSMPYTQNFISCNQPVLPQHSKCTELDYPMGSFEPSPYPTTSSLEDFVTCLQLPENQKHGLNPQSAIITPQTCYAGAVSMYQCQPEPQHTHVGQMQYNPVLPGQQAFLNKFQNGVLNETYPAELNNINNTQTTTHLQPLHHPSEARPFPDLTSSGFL
Kind of data set: DRE-Luciferase Reporter Assay (HepG2 AhR-Lucia reporter cells). The conditions noted are these: AHR activating ligand at its EC50, luciferase read-out, read-out: HEPG2 Luc IC50. Type of data set: cell-based. An excerpt: Example 27: DRE-Luciferase Reporter Assay
AHR binds to Dioxin Responsive Elements (DRE) upstream of genes that it activates. One measure of AHR activity is activation of a reporter gene, such as luciferase, downstream of one or multiple DRE elements. Luciferase activity will reflect activation and inhibition of AHR in the cells expressing his reporter. 20000 Human HepG2 liver carcinoma—AhR-Lucia reporter cells or Human HT29 colon adenocarcinoma—AhR reporter cells or other cell line with a DRE-luciferase reporter stably transfected were plated in Eagle's Minimal Essential Medium, 10% heat-inactivated FBS, 1×non-essential amino acids Pen-Strep (10,000 U/mL) and Normocin (100 ug/mL) in plates (96-well, 384-well or other plates) and incubated overnight at 37° C. in a CO2 incubator and treated with and without AhR antagonists at a log dilution starting at 100 uM.
After 1 hr that cells were plated an AHR activating ligand, such as TCDD, kynurenine, ITE (2-(1H-indole-3-ylcarbonyl)-4-thiazolecarboxylic methyl ester), VAF347, BNF (beta-naphthoflavone), FICZ (6-formylindolo(3,2-b) carbazole) or other AHR ligands at their specific EC50 concentration, were added to the cells with or without AHR antagonist.
Cells were incubated for 24 or 48 hours or another time point and then, supernatant was analyzed for determination of luciferase activity as a read-out of the AHR activation or inhibition. Luciferase was measured with the commercial kit QUANTI-Luc™ assay solution kit from Invivogen following the manufacturer's instructions.
The level of luciferase with only agonist ligand added was the maximum signal while the luciferase with […] was the minimum signal. IC50 values were determined as the concentration which inhibits half of the luciferase activity. “A” indicates an IC50 value less than 100 nM, “B” indicates an IC50 between 100 and 500 nM, “C” indicates an IC50 above 500 nM.
For orientation: In a reporter assay the amount or activity of a reporter protein is the signal.

Data set [1] is described as follows: Solubility Determination Assay (PBS pH 1.6 and pH 7.4). Type of data set: physicochemical. The conditions noted are these: PBS buffer, aqueous buffer, kinetic from dmso stock, 2 hours shaking. The method, then: Example 31: Solubility Determination Assay
The stock solutions of test compounds and control compound progesterone were prepared in DMSO at the concentrations of 10 mM. 15 μL of stock solution (10 mM) of each sample was placed in order into their proper 96-well rack. 485 μL of PBS pH 1.6 and pH 7.4 were added into each vial of the cap-less Solubility Sample plate. The assay was performed in singlet. One stir stick was added to each vial and then the vial was sealed using a molded PTFE/Silicone plug. The solubility sample plates were then transferred to the Eppendorf Thermomixer Comfort plate shaker and shaken at 25° C. at 1100 rpm for 2 hours. After completion of the 2 hours, plugs were removed and the stir sticks were removed using a big magnet. The samples from the Solubility Sample plate were transferred into the filter plate. Using the Vacuum Manifold, all the samples were filtered. An aliquot of 5 μL was taken from the filtrate followed by addition of 495 μL of a mixture of H2O and acetonitrile containing internal standard (1:1). A certain proportion of ultrapure water was used to dilute the diluent according to the peak shape. The dilution factor was changed according to the solubility values and the LC-MS signal response.
From the 10 mM DMSO STD plate, 6 μL was transferred into the remaining empty plate, and then 194 μL of DMSO were added to that plate to have a STD concentration of 300 μM. From the 300 μM DMSO STD plate, 5 μL were transferred into the remaining empty plate, and then 495 μL of a mixture of H2O and acetonitrile containing internal standard (1:1) were added to that plate to have a final STD concentration of 3 μM. A certain proportion of ultrapure water was used to dilute the diluent according to the peak shape. The concentrations of the standard samples were changed according to the LC-MS signal response.
The plate was placed into the well plate autosampler. The samples were evaluated by LC-MS/MS analysis.
All calculations were carried out using Microsoft Excel.
The filtrate was analyzed and quantified against a standard of known concentration using LC coupled with mass spectral peak identification and quantitation. Solubility values of the test compound and control compound were calculated as follows: […]
Any value of the compounds that was not within the specified limits was rejected and the experiment was repeated.
“+++” indicates a solubility value equal to or greater than […] “++” indicates a solubility value between 0.1 and 1 μM and “+” indicates a solubility value less than 0.1 μM.

[2] abbreviates: PBS pH 1.6, 25° C., read-out: Aq. Solubility at pH = 1.6.
Where [3] appears, read: PBS pH 7.4, 25° C., read-out: Aq. Solubility at pH = 7.4.

By IC50 is commonly meant the point on the concentration scale where inhibition reaches its midpoint. In general, solubility refers to how much of the substance goes into solution per volume.

`Cc1ccccc1-c1ccc2nc(NC(=O)c3ccnn3C)sc2n1` [Product 15, 1-Methyl-N-(5-(o-tolyl)thiazolo[5,4-b]pyridin-2-yl)-1H-pyrazole-5-carboxamide]: the IC50 at AHR was < 100 nM. The solubility at 2 h in data set [1] (setting [2]) was 0.1 to 1 µM (≈ 0.0349 to 0.349 µg/mL); in data set [1] (setting [3]), ≥ 1 µM.

In the case of `COc1ccccc1-c1ccc2nc(NC(=O)c3ccccn3)sc2n1` [Product 12, N-(5-(2-methoxyphenyl)thiazolo[5,4-b]pyridin-2-yl)picolinamide], the IC50 on AHR was < 100 nM. Moreover, the solubility at 2 h in data set [1] (setting [2]) and in data set [1] (setting [3]) was 0.1 to 1 µM (≈ 0.0362 to 0.362 µg/mL) in each case.

Regarding `COc1ccccc1-c1ccc2nc(NC(=O)c3ccnn3C)sc2n1` [Product 25, N-(5-(2-methoxyphenyl)thiazolo[5,4-b]pyridin-2-yl)-1-methyl-1H-pyrazole-5-carboxamide], on AHR, the IC50 is < 100 nM. Besides, the solubility at 2 h in data set [1] (setting [2]) and in data set [1] (setting [3]) was ≥ 1 µM in each case.

Consider `Cc1ccccc1-c1ccc2nc(NC(=O)c3ccccn3)sc2n1` [Product 8, N-(5-(o-tolyl)thiazolo[5,4-b]pyridin-2-yl)picolinamide], for which the IC50 at AHR is < 100 nM. The solubility at 2 h in data set [1] (setting [2]) was 0.1 to 1 µM (≈ 0.0346 to 0.346 µg/mL); in data set [1] (setting [3]), < 0.1 µM.

Consider `CN(C)c1ccccc1-c1ccc2nc(NC(=O)c3ccnn3C)sc2n1` [Product 18, N-(5-(2-(dimethylamino)phenyl)thiazolo[5,4-b]pyridin-2-yl)-1-methyl-1H-pyrazole-5-carboxamide], for which the IC50 at AHR was < 100 nM. Moreover, the solubility at 2 h in data set [1] (setting [2]) and in data set [1] (setting [3]) was ≥ 1 µM each time.

`Cn1ncnc1C(=O)Nc1cnc2cc(-c3cc(F)ccc3C(F)F)[nH]c2c1` [Product 47]: the IC50 at AHR is < 100 nM. Besides, the solubility at 2 h in data set [1] (setting [2]) is ≥ 1 µM; in data set [1] (setting [3]) it was 0.1 to 1 µM (≈ 0.0386 to 0.386 µg/mL).

As for `Cc1ccccc1-c1ccc2nc(NC(=O)N3CCOCC3)sc2n1` [Product 39, N-(5-(o-tolyl)thiazolo[5,4-b]pyridin-2-yl)morpholine-4-carboxamide], on AHR, the 50% inhibitory concentration (IC50) was < 100 nM. In addition, the solubility at 2 h in data set [1] (setting [2]) and in data set [1] (setting [3]) was ≥ 1 µM throughout.
